No end group written: not given here.
Key:
murine melanoma B16OVA [1] = assay: Prevention of tumor growth, intraperitoneal melanoma after preventive treatment (Example 5); format: in vivo, mice
Experimental: For the comparative study of the prevention of tumor growth in adults between the therapy of the invention and known anti-tumor therapies, the following therapies (50 μg/ml) were inoculated in female adults of the C57BL/6 strain in an intraperitoneal manner: LLO91-99 (only peptide from listeriolysin O of Listeria monocytogenes, LLO91-99), GNP (empty gluconanoparticles), GNP-LLO91-99 (gluconanoparticles synthesized with the peptide from listeriolysin O of Listeria monocytogenes, LLO91-99), GNP-GAPDH1-22 (nanoparticles synthesized with the peptide from glyceraldehyde-3-phosphate dehydrogenase of Listeria monocytogenes, GAPDH1-22) or saline (NT).
Following 7 days preventative post-treatment, the tumors were established following inoculation with 5×10^6 cells of murine melanoma B16OVA in an intraperitoneal manner. Following 7 days post-established of the tumor, the mice were sacrificed and the recovered tumors were measured by means of a gauge and the tumors were analyzed by means of immunohistochemical staining. The results of the reduction of the tumor growth and their intraperitoneal position are shown in FIG. 4A and FIG. 4B and the results of the analysis of the immunohistochemical staining in FIG. 4C.

murine melanoma B16OVA [2] = assay: Reduction of tumor size, monotherapy or combination with immunological control point immunotherapies (Example 4); format: in vivo, mice; conditions: s.c. B16OVA
Experimental: For the study of the reduction of the tumor in adults and increasing the survival making use of different immunotherapies with immunological control points and their comparison as a monotherapy or combination therapy with that of the invention, 5×10^5 cells of murine melanoma B16OVA were inoculated in a subcutaneous manner just like in FIG. 1 (Example 2). Following 7 days post-inoculation, 50 μg/ml of the therapy of the invention were inoculated in the tumors for 7 days as a monotherapy, GNP-LLO91-99 (gluconanoparticles synthesized with the peptide from listeriolysin O of Listeria monocytogenes, LLO91-99), or in combination with the following immunotherapies with immunological control points, anti-CTLA-4 or anti-PD-1 in a dose of 100 μg/mouse every 2 days up to a total of 7 days or no particle (NT).
Following this treatment, the mice were sacrifice at different times following the therapies, 14, 21 or 30 days in total. The results are shown in FIG. 3A following the sacrifice of the mice, recovery of the tumors and measuring of their size with a gauge. In another similar experiment, the mice are not sacrificed and the effect of the therapies is evaluated in the survival of the mice.

murine melanoma B16F10 = assay: Reduction of the size of the tumor, subcutaneous murine melanoma in adult mice (Example 2); format: in vivo; conditions: adult C57BL/6 mice, s.c. B16F10 established 7 days, 50 μg/ml inoculated in the tumors for 5 days
Experimental: For the study of the reduction of the size of the tumor making use of different therapies and their comparison with that of the invention, 1×10^6 cells of murine melanoma B16F10 were inoculated in a subcutaneous manner in the left ventral flank of 8-12-week old female mice of the C57BL/6 strain.
After 7 days post-inoculation, 50 μg/ml of the following therapies were inoculated in the tumors for 5 days: LLO91-99 (only peptide from listeriolysin O of Listeria monocytogenes, LLO91-99), GNP (empty gluconanoparticles), GNP-LLO91-99 (gluconanoparticles synthesized with the peptide from listeriolysin O of Listeria monocytogenes, LLO91-99), GNP-GAPDH1-22 (nanoparticles synthesized with the peptide from glyceraldehyde-3-phosphate dehydrogenase of Listeria monocytogenes, GAPDH1-22) or no particle (NT). Dendritic cells loaded with the LLO91-99 (1×10^6 DC-LLO91-99) peptide were also included as a control, a vector previously used in therapy.
Following this treatment, the mice were sacrificed and the tumors recovered, measuring their size with a gauge.

[3] = In vitro apoptosis-necrosis, flow cytometry annexin V-APC / 7-ADD; format: cell-based, hamster; conditions: 10 μg/ml, 16 hours, CHO
Experimental: 1.—Tumor cells. The cells used are: Hepa1-6, murine hepatocarcinoma, TC-1, murine lung carcinoma; B16F10, murine melanoma; A-375, human melanoma; hamster melanoma (ATCC).
2.—In vitro apoptosis-necrosis. The different tumor cells (1×10^6 cells) are treated with 10 μg/ml of the GNP-LLO91-99 gold nanoparticles in culture plates, 16 hours prior to the apoptosis-necrosis analysis, including cells of each type of tumor without treatment with the gold nanoparticles (control). Following washing, the cells are analyzed by means of flow cytometry using two specific products, annexin V conjugated with the APC fluorochrome and the fluorescent marker for binding to DNA, 7-ADD (7-amino-actinomycin D). Apoptosis and necrosis in the tumor cells are analyzed by means of the differential marking with annexin V-APC and 7-ADD expressed as percentages. While the necrosis is indicated as the percentage of cells doubly marked with annexin V-APC and 7-ADD, the apoptosis is expressed as the percentage of cells marked only with annexin V.

For “GNP-LLO91-99: gluconanoparticles synthesized with the peptide from listeriolysin O of Listeria monocytogenes, LLO91-99 (GYKDGNEYI; also: gold glyconanoparticle conjugate; UniProt P13128 91-99, looked up, fragment)”, the “prevention of tumor growth” value (murine melanoma B16OVA [1]; 50 μg/ml intraperitoneal 7 days before i.p. B16OVA, adult C57BL/6, tumors measured 7 days after establishment) was 90%, the “necrotizing foci in the melanomas” value (murine melanoma B16OVA [1]; immunohistochemical staining of recovered peritoneal tumors) was 60% and the “position of the tumor / spreading to other organs” value (murine melanoma B16OVA [1]; intraperitoneal B16OVA after preventive treatment) was “positioned intraperitoneally preventing its spreading to other organs”. The tumor regression (murine melanoma B16OVA [2]; combination therapy with anti-CTLA-4 (100 μg/mouse every 2 days), at 14 days) was “up to 90%”, the tumor regression (murine melanoma B16OVA [2]; combination therapy with anti-CTLA-4 (100 μg/mouse every 2 days), at 30 days) was “up to 90%” and the tumor regression (murine melanoma B16OVA [2]; combination with anti-PD-1 (100 μg/mouse every 2 days), at 14 days) was 100%. For the same substance, the tumor regression (murine melanoma B16OVA [2]; combination with anti-PD-1 (100 μg/mouse every 2 days), at 30 days) was 100%, the tumor regression (murine melanoma B16OVA [2]; monotherapy, 50 μg/ml in the tumors, 7 days) was 80% and the tumor regression (murine melanoma B16OVA [2]; monotherapy, 50 μg/ml in the tumors, at 14 days) was 90%. For the same substance, the tumor regression (murine melanoma B16OVA [2]; monotherapy, 50 μg/ml in the tumors, at 30 days) was 90%, the “therapeutic effect on the melanoma (in words)” value (murine melanoma B16F10) was “does achieve a significant tumor regression” and the tumor regression (murine melanoma B16F10) was 90%. For the same substance, the “induction of tumor apoptosis and necrosis / inhibitory effect” value [3] was “do not cause any inhibitory effect”.
